Assays:
Interleukin-1β (IL-1β) = test: Sandwich ELISA quantification of IL-1β in supernatants of treated fibroblast-like synoviocytes; assay type: cell-based, human; settings: fibroblast-like synoviocytes from patients with degenerative arthritis, 24 hours treatment, supernatant
Protocol: (§1) The fibroblast-like synoviocytes (FLS) from five patients with degenerative arthritis were collected and cultured. First, the joint synovium of the patients were cut into small pieces, suspended in a DMEM (Dulbecco modified eagle's medium) culture medium, and incubated under an environment of 37° C. and 5% CO2 for 3 days. The culture medium contains 1.5 g/L sodium bicarbonate (S6297, Sigma-Aldrich, St Louis, Mo., USA), 1% penicillin-streptomycin-neomycin (P408, Sigma-Aldrich), and 10% fetal bovine serum (04-001-1A, Biological Industries, Grand Island, N.Y., USA).
(§2) Non-attached cells were removed by a phosphate buffered saline solution (PBS), the culture medium was refreshed, and the attached cells were cultured for 2 weeks. After the above steps were repeated 3 to 6 times, the remaining cells were fibroblast-like synoviocytes. The obtained cells were then used for the following test.
(§3) The fibroblast-like synoviocytes obtained form Experiment A were cultured in a serum-free culture medium for 24 hours. Then, the fibroblast-like synoviocytes were separately cultured in the following four culture medium for 24 hours: (1) a DMEM culture medium comprising only 10% fetal bovine serum (as a control group); (2) a DMEM culture medium comprising 10% fetal bovine serum and hyaluronic acid (having an average molecular weight of 600 KDa to 800 KDa); (3) a DMEM culture medium comprising 10% fetal bovine serum and vitamin C, vitamin D, or vitamin E; and (4) a DMEM culture medium comprising 10% fetal bovine serum, hyaluronic acid (having an average molecular weight of 600 KDa to 800 KDa), and vitamin C, vitamin D or vitamin E. The concentrations of hyaluronic acid and vitamin in the above four culture mediums were the same as the above Preparation Example.
(§4) Then, the cells of the aforesaid four groups were collected and centrifuged, and the supernatants were collected for the following analysis.
(§5) In this experiment, the concentrations of two cytokines related to degenerative arthritis in the collected supernatants from Experiment B were determined by using a sandwich binding protein assay kit (or sandwich ELISA kits, purchased from the eBioscience company) based on the standard curves according to the manufacturer's manual to analyze the expression level of these cytokines and determine the inflammation level of the cells. […] Each sample was analyzed twice, and an enzyme-linked immunosorbent assay (ELISA) reader (Sunrise Remote, TECAN) was used to carry out the measurement.

[1] = test system: tumor necrosis factor-α (TNF-α); test: Sandwich ELISA quantification of TNF-α in supernatants of treated fibroblast-like synoviocytes; assay type: cell-based, human; settings: fibroblast-like synoviocytes from patients with degenerative arthritis, 24 hours treatment, supernatant
Protocol: as §1, §2, §3, §4, §5

[2] = Table 1 (vitamin C experiment), control 91.98
[3] = Table 1 (vitamin C experiment), control 95.57
[4] = Table 2 (vitamin D experiment), control 97.47
[5] = Table 3 (vitamin E experiment), control 97.37
[6] = Table 2 (vitamin D experiment), control 106.78
[7] = Table 3 (vitamin E experiment), control 98.09

`O=C1O[C@H]([C@@H](O)CO)C(O)=C1O` [vitamin C] showed an IL-1β average concentration (Interleukin-1β (IL-1β); [2]) of 77.00 pg/mL and a TNF-α average concentration [1, 3] of 75.56 pg/mL.
hyaluronic acid showed an IL-1β average concentration (Interleukin-1β (IL-1β); [2]) of 78.79 pg/mL, an IL-1β average concentration (Interleukin-1β (IL-1β); [4]) of 76.03 pg/mL and an IL-1β average concentration (Interleukin-1β (IL-1β); [5]) of 78.33 pg/mL. The TNF-α average concentration [1, 3] was 75.64 pg/mL, the TNF-α average concentration [1, 6] was 82.52 pg/mL and the TNF-α average concentration [1, 7] was 79.28 pg/mL.
Work on vitamin D yielded an IL-1β average concentration (Interleukin-1β (IL-1β); [4]) of 74.78 pg/mL and a TNF-α average concentration [1, 6] of 79.52 pg/mL.
Work on vitamin E yielded an IL-1β average concentration (Interleukin-1β (IL-1β); [5]) of 75.57 pg/mL and a TNF-α average concentration [1, 7] of 77.03 pg/mL.

— patent US20150094279A1, “PHARMACEUTICAL COMPOSITION AND METHOD FOR INHIBITING INFLAMMATION” (CHINA MEDICAL UNIVERSITY, priority 2011, published 2015)
